Values quoted from earlier work in patent US8431165B2, “Medicament for treatment of cancer and other diseases” (Swing Aerobics Licensing, Inc., priority 2004, dated 2013).

Conditions: adult men and women, mean+SD

Compound: CC/C=C\C/C=C\C/C=C\CCCCCCCC(=O)O [alpha-linolenic acid]
- average estimated conversion of alpha-linolenic acid to docosahexaenoic acid: 3.6±3.8%
- average estimated conversion of alpha-linolenic acid to n-3 LC-PUFA metabolites: 17.3±12.8%
